Reference: patent publication US20060252735A1, “Treatment of graft-versus-host disease and leukemia with beclomethasone dipropionate and prednisone” (DOR BioPharma, Inc., priority 2004, published 2006)

Legend:
[1] = system: patients with Grade II GVHD with GI symptoms; assay: Phase III trial: survival/mortality through 200 days post-transplant; assay type: in vivo, human
Protocol: 5. To compare the treatment groups with respect to total deaths and cause of death through 200 days post-transplant.
(§1) The randomization was stratified by the source of the allograft (two HLA haplotype identical sibling versus all other), and by topical corticosteroid use (yes versus no). All patients received 10 days of prednisone at 1 mg/kg/day (or an equivalent dose of intravenous [IV] corticosteroid). On Study Day 10, patients determined by the investigator to have their GVHD controlled had their prednisone tapered rapidly over 7 days starting on Study Day 11, and received a maintenance prednisone dose of 0.0625 mg/kg/day for the remainder of the study. BDP doses were evenly divided to include equal quantities of the IR and EC formulations administered four times per day.
7. Patient survival through day 200 post-transplant.
One hundred and twenty-nine (129) post-bone marrow transplant patients presenting with Grade II iGVHD were enrolled in the randomized, double-blind, placebo-controlled, multi-center clinical trial, which was conducted at 16 bone marrow transplant centers in the United States and France. All patients in the Phase III clinical trial were initially treated with a constant daily dose of high dose (1-2 mg/kg) prednisone, which is the current standard therapy, in combination with an oral dose of either orBec® (8 mg/day) or placebo for the first 10 days. On day 10, if patients were responding to treatment, the high dose prednisone was rapidly tapered and patients continued to receive either orBec® or placebo orally for an additional forty days. The primary endpoint of the study was a comparison between the two treatment arms of the time to treatment failure, defined as the need for additional therapies due to uncontrolled signs or symptoms of GVHD. Secondary endpoints in the study included a comparison of the proportion of treatment failures and clinical scores at 10 Days, 30 Days, 50 Days, 60 Days and 80 Days post-randomization, a comparison of cumulative exposure to systemic steroids, as well as a comparison of mortality at Day 200 post-transplant.

Grade II GI GVHD = details: capsule form, 8 mg/day divided into 4 equal doses; cited from earlier work
[2] = system: patients with Grade II GVHD with gastrointestinal symptoms; details: oral BDP 8 mg/day for 30 days as adjuvant to prednisone; cited from earlier work
[3] = system: patients with Grade II GVHD with GI symptoms; assay: Phase III randomized, double-blind, placebo-controlled trial: treatment failure with oral BDP plus 10 days of prednisone; assay type: in vivo, human; details: for Cumulative events (treatment failures): full analysis set, 62 randomized
From the text: The Secondary objectives of the study were:
To be eligible for entry into the study, patients were at least 10 days post allogeneic hematopoietic cell transplantation, have GI symptoms consistent with Grade II GVHD, and had endoscopic evidence of GVHD. The diagnosis of GVHD was confirmed by biopsy of the intestine (esophagus, stomach, small intestine, or colon) or skin. A total of 129 eligible patients were randomized to one of two treatment groups.
as §1
1. Treatment failure, defined as use of prednisone or equivalent IV corticosteroids at doses higher than stated in protocol, or addition of other immunosuppressant medications.
The primary efficacy endpoint of this two-arm study was the time to treatment failure. The primary efficacy analysis will compare the time to treatment failure through Study Day 50 using a log-rank test controlling for patient randomization stratum. Product-limit estimates for time to failure will be provided for descriptive purposes. The null hypothesis for the log-rank test is that time to failure is homogeneous across the treatment groups.
Secondary analyses of treatment failure compared the treatment groups with respect to proportion of treatment failures and Karnofsky Scale (or Lansky Scale) scores at key time points. The difference in proportion of treatment failures on Study Days 10, 30, 50, 60, and 80 was evaluated using a two-sided Fisher's Exact test of the null hypothesis of no difference between the treatment groups. The difference in Karnofsky Scale (or Lansky Scale) scores at the same time points was evaluated using a two-sided Wilcoxon test to evaluate the null hypothesis of no difference in medians between treatment groups.
On Study Day 10, patients were evaluated for the signs and symptoms of GVHD. Patients in both treatment groups who met the response criterion of adequately controlled GVHD, as judged by the investigator, had their prednisone tapered over 7 days starting on Study Day 11 (Table 2). Starting on Study Day 17, physiologic replacement doses of prednisone were given for the remainder of the study. If the investigator determined that GVHD was not controlled on Study Day 10, patients discontinued study drug but continued prednisone initially at 1 mg/kg/day; these patients were considered to be treatment failures. In treatment failure cases, physicians subsequently modifiedy prednisone dosage as deemed appropriate.
One hundred and twenty-nine (129) post-bone marrow transplant patients presenting with Grade II iGVHD were enrolled in the randomized, double-blind, placebo-controlled, multi-center clinical trial, which was conducted at 16 bone marrow transplant centers in the United States and France. All patients in the Phase III clinical trial were initially treated with a constant daily dose of high dose (1-2 mg/kg) prednisone, which is the current standard therapy, in combination with an oral dose of either orBec® (8 mg/day) or placebo for the first 10 days. On day 10, if patients were responding to treatment, the high dose prednisone was rapidly tapered and patients continued to receive either orBec® or placebo orally for an additional forty days. […]

[4] = system: gastrointestinal GVHD patients; details: cited from earlier work
[5] = 200 days post-transplant, safety population, 61 evaluable
[6] = orBec n = 62, p 0.006 vs placebo
[7] = up to 28 days of BDP 8 mg/day, both groups (taking prednisone or not)

CCC(=O)OCC(=O)[C@@]1(OC(=O)CC)[C@@H](C)C[C@H]2[C@@H]3CCC4=CC(=O)C=C[C@]4(C)[C@@]3(Cl)[C@@H](O)C[C@@]21C [BDP, Beclomethasone 17,21-dipropionate]
Survival status: Alive, number of subjects [1, 5]: 56
Survival status: Alive, percent of subjects [1, 5]: 92%
Survival status: Dead, number of subjects [1, 5]: 5
Survival status: Dead, percent of subjects [1, 5]: 8%
reduction in mortality versus placebo group ([1]; Day 200 post-transplant period): 70%
Mortality Rate at 200 Days Post-Transplant [1, 6]: 8%
Mortality at 200 Days Post-Transplant, number of deaths [1, 6]: 5
Day 200 survival rate ([1]; safety population, Z = 2.750, P = 0.0060 vs placebo): 0.91
clinical benefit in treatment of Grade II GI GVHD (Grade II GI GVHD): provide clinical benefit
gastrointestinal symptoms (nausea, vomiting, diarrhea) versus placebo group [2]: all improved
proportion of patients with increased oral caloric intake versus prednisone plus placebo [2]: significantly higher proportion
Cumulative treatment failure rate (Kaplan-Meier estimate) ([3]; Study day 10, P = 0.1538 vs placebo): 0.14
Cumulative events (treatment failures) ([3]; Study day 10): 8
Cumulative treatment failure rate (Kaplan-Meier estimate) ([3]; Study day 30, P = 0.3625 vs placebo): 0.25
Cumulative events (treatment failures) ([3]; Study day 30): 15
Cumulative treatment failure rate (Kaplan-Meier estimate) ([3]; Study day 50, P = 0.0515 vs placebo): 0.31
Cumulative events (treatment failures) ([3]; Study day 50): 18
Cumulative treatment failure rate (Kaplan-Meier estimate) ([3]; Study day 60, P = 0.0558 vs placebo): 0.33
Cumulative events (treatment failures) ([3]; Study day 60): 19
Cumulative treatment failure rate (Kaplan-Meier estimate) ([3]; Study day 80, P = 0.0048 vs placebo): 0.39
Cumulative events (treatment failures) ([3]; Study day 80): 22
time to treatment failure through Day 50 (primary endpoint) versus placebo ([3]; log-rank, p-value 0.1177): did not achieve statistical significance
Treatment Failure Rate at Study Day 80 ([3]; orBec 8 mg/day for 50 days + prednisone, n = 62, p 0.0048 vs placebo): 39%
Treatment Failure Rate at Study Day 50 ([3]; orBec 8 mg/day for 50 days + prednisone, n = 62, p 0.0515 vs placebo): 31%
time to treatment failure through Day 80 (secondary endpoint) versus placebo ([3]; p-value 0.0226): did achieve statistical significance
study drug associated adverse events reported ([4]; BDP 8 mg/day for 28 days): mild metallic taste and mild peri-umbilical heaviness
treatment-related adverse events ([4]; BDP 8 mg/day for 28 days): No significant treatment-related adverse events were observed
timing of response versus historical high dose prednisone ([4]; BDP alone group): appeared to be slower
gastrointestinal symptoms versus baseline [4, 7]: abatement of most gastrointestinal symptoms
oral food intake versus baseline [4, 7]: increase in oral food intake
